Measured values taken from PMC8637020, “Drug Repositioning For Allosteric Modulation of VIP and PACAP Receptors” (Frontiers in Endocrinology, 2021).

How the values were obtained:
VPAC2 = target: T1, VPAC2 (Homo sapiens, UniProt P41587); experiment: FAM-VIP competition binding by FACS ([…] VIP binding left at […]) and aequorin calcium mobilization in CHO cells expressing VPAC2; IC50 extrapolated from the partial calcium inhibition; type: cell-based
T1 construct: gene VIPR2
T1 sequence (P41587 24-438): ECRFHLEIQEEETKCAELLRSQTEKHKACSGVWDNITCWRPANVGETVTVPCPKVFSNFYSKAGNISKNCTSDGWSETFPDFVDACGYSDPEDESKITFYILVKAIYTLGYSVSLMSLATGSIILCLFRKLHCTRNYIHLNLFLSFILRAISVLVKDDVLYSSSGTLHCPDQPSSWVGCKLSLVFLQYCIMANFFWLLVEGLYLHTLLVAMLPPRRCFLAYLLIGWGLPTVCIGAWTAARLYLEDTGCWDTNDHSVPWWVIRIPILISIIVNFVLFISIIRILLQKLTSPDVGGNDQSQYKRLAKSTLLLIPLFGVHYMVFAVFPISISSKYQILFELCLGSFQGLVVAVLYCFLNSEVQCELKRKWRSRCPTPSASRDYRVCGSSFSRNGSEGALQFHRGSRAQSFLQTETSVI

VPAC1 = target: T2, VPAC1 (Homo sapiens, UniProt P32241); experiment: FAM-VIP competition binding by FACS ([…] VIP binding left at […]) and aequorin calcium mobilization in CHO cells expressing VPAC1; IC50 extrapolated from the partial calcium inhibition; type: cell-based
T2 construct: gene VIPR1
T2 sequence (P32241 31-457): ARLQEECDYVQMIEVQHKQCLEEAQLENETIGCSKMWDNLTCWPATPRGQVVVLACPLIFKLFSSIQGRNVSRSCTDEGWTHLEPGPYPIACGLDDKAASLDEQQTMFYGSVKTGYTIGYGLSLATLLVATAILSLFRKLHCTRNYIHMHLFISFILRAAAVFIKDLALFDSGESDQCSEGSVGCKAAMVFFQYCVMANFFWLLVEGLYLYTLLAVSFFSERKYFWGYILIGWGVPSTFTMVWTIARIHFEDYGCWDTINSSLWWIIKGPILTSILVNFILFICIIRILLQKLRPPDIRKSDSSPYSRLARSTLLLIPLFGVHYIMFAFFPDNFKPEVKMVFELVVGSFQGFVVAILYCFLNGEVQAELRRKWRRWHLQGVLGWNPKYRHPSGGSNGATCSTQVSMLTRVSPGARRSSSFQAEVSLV

IC50 (VPAC2): ~20 µM
IC50 (VPAC1): ~50 µM
Compound: CCCSc1nc(N[C@@H]2C[C@H]2c2ccc(F)c(F)c2)c2nnn([C@@H]3C[C@H](OCCO)[C@@H](O)[C@H]3O)c2n1 [ticagrelor]
